ChEMBL document CHEMBL1127001, “Novel sigma receptor ligands 2” (Bioorg Med Chem Lett, 1993)

Experiments:
D(2) dopamine receptor = D(2) dopamine receptor (Homo sapiens, UniProt P14416); experiment: Binding affinity towards dopamine D2 receptor using radiolabeled ligand [3H]spiperone
Glutamate NMDA receptor = experiment: Binding affinity towards PCP receptor in rat brain membrane using radiolabeled ligand [3H]TCP (1-[1-(2-thienyl)cyclohexyl]piperidine) was determined; format: cell membranes
[1] = target: T1, Sigma non-opioid intracellular receptor 1 (Homo sapiens, UniProt Q99720); experiment: Binding affinity towards sigma receptor using radiolabeled ligand [3H]-(+)-SKF- 10,047 was determined
[2] = target: T1, Sigma non-opioid intracellular receptor 1; experiment: Binding affinity for sigma receptor using [3H]-(+)-SKF- 10,047
[3] = Binding affinity towards dopamine D2 receptor using radiolabeled ligand [3H]spiperone

T1 sequence (Q99720 whole entry): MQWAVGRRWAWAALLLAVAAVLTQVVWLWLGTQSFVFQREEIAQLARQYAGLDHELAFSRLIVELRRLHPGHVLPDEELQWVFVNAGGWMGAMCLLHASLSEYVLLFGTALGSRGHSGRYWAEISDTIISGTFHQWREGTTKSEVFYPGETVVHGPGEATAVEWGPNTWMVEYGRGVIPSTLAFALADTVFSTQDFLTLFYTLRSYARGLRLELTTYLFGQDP
Sequence of D(2) dopamine receptor (P14416 whole entry): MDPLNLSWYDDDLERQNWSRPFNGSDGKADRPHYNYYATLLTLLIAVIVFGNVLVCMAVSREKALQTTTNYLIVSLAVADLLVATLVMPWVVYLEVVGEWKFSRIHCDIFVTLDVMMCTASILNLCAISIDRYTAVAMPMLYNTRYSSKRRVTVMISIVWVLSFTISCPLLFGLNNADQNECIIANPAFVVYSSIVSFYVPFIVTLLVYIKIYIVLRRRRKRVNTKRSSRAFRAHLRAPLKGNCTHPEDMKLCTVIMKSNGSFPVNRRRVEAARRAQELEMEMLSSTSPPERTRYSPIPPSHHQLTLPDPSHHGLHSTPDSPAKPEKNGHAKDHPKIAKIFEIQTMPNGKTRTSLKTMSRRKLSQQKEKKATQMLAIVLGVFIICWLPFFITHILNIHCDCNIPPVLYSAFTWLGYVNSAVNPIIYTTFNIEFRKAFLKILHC

Structure (SMILES)	Ki (D(2) dopamine receptor) [nM]	Ki (Glutamate NMDA receptor) [nM]	Ki [1] [nM]	Ki [2] [nM]	Ki [3] [nM]
O=C1CC2(CCN(CCc3ccccc3)CC2)OC=C1c1ccc(F)cc1	2900	1690	6		
COc1ccc(C2=COC3(CCN(CCc4ccccc4)CC3)CC2=O)cc1	1500			30	
CN1CCC2(CC1)CC(=O)C(c1ccccc1)=CO2	> 100000			6880	
CN(C)CC1(C)CC(=O)C(c2ccccc2)=CO1 (single isomer, unassigned; (-))	4100			352	
O=C1C[C@]2(CC[C@@H](OCc3ccccc3)CC2)OC=C1c1ccccc1	> 10000	> 10000			
CCN(CC)CCCC1(C)CC(=O)C(c2ccccc2)=CO1 (single isomer, unassigned; (-))	> 10000	> 10000	34		
O=C1C=C(c2ccco2)OC2(CCN(CCc3ccccc3)CC2)C1	7600			70	
O=C1CC2(CCCN(Cc3ccccc3)C2)OC=C1c1ccc(F)cc1 (single isomer, unassigned; (-))	8780	> 10000	131		
O=C1C[C@]2(CC[C@H](OCc3ccccc3)CC2)OC=C1c1ccccc1	> 10000	> 10000			
O=C1C(c2ccc(F)cc2)COC12CCN(Cc1ccccc1)CC2 (single isomer, unassigned; (-))		2230			47
O=C1CC2(CCN(CCc3ccccc3)CC2)OCC1c1ccc(F)cc1 (stereo not drawn)	1530	14000			
O=C1CC2(CCN(CCc3ccccc3)CC2)OC=C1c1ccccc1	2030	> 10000	5		
O=C1C=C(c2ccccc2)OC2(CCN(CCc3ccccc3)CC2)C1	4200			10	
CN1CCC2(CC1)CC(=O)C(c1ccc(F)cc1)=CO2	> 100000			7300	
O=C1CC2(CN3CCC2CC3)OC=C1c1ccccc1 (stereo not drawn)	> 10000			1590	
O=C1CC2(CCCN(Cc3ccccc3)C2)OC=C1c1ccccc1 (single isomer, unassigned; (-))				13	
CN1C2CCC1CC1(CC(=O)C(c3ccccc3)=CO1)C2 (single isomer, unassigned; (-))	> 10000			1830	
O=C1CC2(CCN(CCc3ccccc3)CC2)OC=C1c1cccs1	1080			7	
O=C1CC2(CCN(CCc3ccccc3)CC2)OC=C1c1ccccc1F	2330	30000	1		
O=C1CC2(CCN(Cc3ccccc3)CC2)OC=C1c1ccccc1	1460				
